≈ marks a conversion by molar mass, not a printed value. Where two headings read alike, the source gives them in different places.
Assays:
[1] = Acidic pKa; assay type: physicochemical; details: for pKa: distilled water
[2] = In vitro dissolution test of Drug 2 dispersion in MFD solution; assay type: physicochemical; details: 37° C.
[3] = Aqueous solubility of neutral form of drug (MFD or PBS solution, pH 6.5); assay type: physicochemical
[4] = Solubility in volatile organic solvents; assay type: physicochemical; details: for solubility: organic solvent or mixture
Excerpt: The drug is poorly soluble in volatile organic solvents. By “volatile organic solvent” is meant a solvent selected from the group consisting of acetone, methanol, tetrahydrofuran, ethyl acetate, mixtures of any one of these with water, and mixtures of these with each other. […] As used herein, the solubility is assumed to be measured at ambient temperature and pressure.

[5] = In vitro dissolution test of Drug 3 dispersion in MFD solution; assay type: physicochemical; details: dissolved Drug 3, initial 90 min; MFD solution pH 6.5, 37° C., 200 μgA/mL dosed
[6] = dissolved Drug 3; dispersion pre-suspended in 0.5 wt % Methocel A + 15 mg/mL HPMCAS-HF in PBS, then MFD; 200 μgA/mL dosed; Control 3 as in Example 5 test
[7] = In vitro dissolution test of Drug 1 dispersions in MFD solution; assay type: physicochemical; details: 37° C.
Method: For these tests, suspensions were formed by adding a sufficient quantity of the dispersions of Example 1 or Example 2 to water containing 0.5 wt % Methocel Type A such that each suspension contained 7.2 mgA/mL Drug 1. Next, a 50 μL sample of each suspension was added to microcentrifuge tubes in duplicate. […] HPLC analysis was performed using an Zorbax RX-C18 4.6×75 mm […] column, with a mobile phase of 63/37 v/v aqueous 0.1 wt % trifluoroacetic acid/acetonitrile, and UV absorbance measured at 220 nm.
The concentrations of dissolved Drug 1 obtained in these samples were used to determine the maximum dissolved concentration of Drug 1 in solution during the first ninety minutes of the test (MDC90), the area under the concentration-versus-time curve during the initial ninety minutes (“AUC90”), and the concentration of Drug 1 at 1200 minutes (“C1200”).

pKa [1]	C1200 ([2]; Drug 2 concentration at 1200 minutes)	AUC90 ([2]; dissolved Drug 2, initial 90 min, 200 μgA/mL dosed)	solubility ([3]; fassif, MFD solution pH 6.5, read-out: solubility in a pH 6.5 MFD solution)	solubility ([4]; acetone, read-out: solubility in acetone)	solubility in methanol ([4]; crystalline neutral form, methanol)	solubility ([4]; methanol, read-out: solubility in methanol)	C1200 ([7]; Drug 1 concentration at 1200 minutes)	MDC90 ([7]; dissolved Drug 1, first 90 min, 200 μgA/mL dosed)	AUC90 ([7]; dissolved Drug 1, initial 90 min, 200 μgA/mL dosed)	Structure (SMILES)	solubility ([3]; phosphate buffered saline, aqueous buffer, PBS pH 6.5, read-out: solubility in phosphate buffered saline solution at pH of 6.5)	solubility ([4]; THF, 25° C., neutral form, read-out: solubility in THF at 25° C.)	solubility ([4]; acetone, 25° C., neutral form, read-out: solubility in acetone at 25° C.)	solubility ([4]; methanol, 25° C., neutral form, read-out: solubility in methanol at 25° C.)	acidic pKa [1]	AUC90 [5]	MDC90 [5]	AUC90 [6]	MDC90 [6]
11.3	1.0 µg/mL	44 µg·min/mL								Nc1nc(C(F)(F)F)cc2c1[nH]c(=O)n2Cc1ccccc1 [Drug 2, 4-amino-1-benzyl-6-trifluoromethyl-1,3-dihydro-imidazo[4,5-c]pyridine-2-one]									
										Cc1c(S(=O)(=O)c2ccc(=O)[nH]n2)oc2ccc(Cl)cc12 [Drug 3, 6-(5-chloro-3-methyl-benzofuran-2-sulfonyl)-2H-pyridazin-3-one]	< 1 µg/mL	~12000 µg/mL (≈ 37000 µM)	~4700 µg/mL (≈ 14500 µM)	~1500 µg/mL (≈ 4620 µM)	6.9	540 min*μgA/mL	8 μgA/mL	540 min*μgA/mL	8 μgA/mL
7.3			~3 µg/mL (≈ 8.87 µM)	25 µg/mL (≈ 73.9 µM)	about 0.059 mgA/mL	59 µg/mL (≈ 174 µM)	<0.1 µg/mL	1 µg/mL	<88 µg·min/mL	Nc1nc(C(=O)NCC2CC2)nc2c1[nH]c(=O)n2Cc1ccccc1 [Drug 1, 6-amino-9-benzyl-8-oxo-8,9-dihydro-7H-purine-2-carboxylic acid cyclopropylmethyl-amide]									

From patent publication US8372836B2, “Spray dried formulation” (Bend Research, Inc., priority 2006, dated 2013)
